The values that follow come from patent US12297187B2, “Compound having cyclic structure” (Daiichi Sankyo Company, Limited, priority 2017, dated 2025).

The test system of this test is IL-10. Nature of the test: Measurement of IL-10 increase rate (LPS-induced inflammation in mice, serum IL-10 by ELISA). The settings on record: Mus musculus, 2 h, oral 100 mg/kg in 0.5% methyl cellulose, LPS 0.4 mg/kg i.p. one hour later, serum taken one hour after LPS, % control ratio vs 0.5% methyl cellulose group, read-out: IL10 Increase Rate (%). It counts as in vivo. As for the experimental part:
A test substance was suspended in a 0.5% (w/v) methyl cellulose and orally administered to mice at a dose of 100 mg/kg. One hour later, a lipopolysaccharide (LPS, Sigma-Aldrich, L2630 (trade name)) (0.4 mg/kg) was intraperitoneally administered to induce inflammation. One hour after administration of LPS, blood was taken from the vena cava under anesthesia with isoflurane, placed in a tube containing a serum separating agent, allowed to stand still at room temperature for 20-30 minutes and centrifuged at 4° C. at 12,000 rpm for 5 minutes to obtain the serum. Thereafter, the amount of the IL-10 in the serum was measured by using Mouse IL-10 Quantikine ELISA Kit (R&D systems, M1000B (trade name)) or Mouse IL-10 Immunoassay kit (PerkinElmer, AL502 (trade name)) in accordance with the protocol of the kit. The serum was diluted 10 times with the dilution solution contained in the kit and put in use. IL-10 increase rate (% control ratio) of the compound was calculated in accordance with the following expression: IL-10 increase rate (% control ratio) (IL10 amount in compound administration group)×100/(IL-10 amount in 0.5% (w/v) methyl cellulose administration group)
(In general: ELISA stands for enzyme-linked immunosorbent assay.)
On to `Cn1c(COc2cccc(C(F)(F)F)c2)nnc1[C@H]1CC[C@H](n2cc([C@H]3CC[C@H](N4CCC4)CC3)cn2)CC1` [Example 17, 3-(trans-4-{4-[trans-4-(Azetidin-1-yl)cyclohexyl]-1H-pyrazol-1-yl}cyclohexyl)-4-methyl-5-{[3-(trifluoromethyl)phenoxy]methyl}-4H-1,2,4-triazole], for which the response vs control in vivo at 100 mg/kg was found to be 334%. Turning to `CN1CCC(c2cnn(-c3ccc(-c4nnc(COc5cccc(C(F)(F)F)c5)n4C)cc3)c2)CC1` [Example 16, 1-Methyl-4-{1-[4-(4-methyl-5-{[3-(trifluoromethyl)phenoxy]methyl}-4H-1,2,4-triazol-3-yl)phenyl]-1H-pyrazol-4-yl}piperidine], the response vs control in vivo at 100 mg/kg was 170%. The same measure for `CC(C)c1cccc(O[C@H](C)c2nnc([C@H]3CC[C@H](n4cc([C@@H]5CC[C@@H](N(C)C)CO5)nn4)CC3)n2C)c1` [Example 8, (3R,6S)—N,N-Dimethyl-6-{1-[trans-4-(4-methyl-5-{(1R)-1-[3-(propan-2-yl)phenoxy]ethyl}-4H-1,2,4-triazol-3-yl)cyclohexyl]-1H-1,2,3-triazol-4-yl}tetrahydro-2H-pyran-3-amine]: 197%; for `CN1CCC(c2cn(-c3ccc(-c4nnc(COc5cccc(C(F)(F)F)c5)n4C)cc3)nn2)CC1` [Example 1, 1-Methyl-4-{1-[4-(4-methyl-5-{[3-(trifluoromethyl)phenoxy]methyl}-4H-1,2,4-triazol-3-yl)phenyl]-1H-1,2,3-triazol-4-yl}piperidine]: 146%. For the molecule `CC(C)c1cccc(CC2OCCn3c2nnc3[C@H]2CC[C@H](n3cc(C4(F)CCN(C)CC4)nn3)CC2)c1` (stereo partly drawn) [Example 14, 3-{trans-4-[4-(4-Fluoro-1-methylpiperidin-4-yl)-1H-1,2,3-triazol-1-yl]cyclohexyl}-8-[3-(propan-2-yl)benzyl]-5,6-dihydro-8H-[1,2,4]triazolo[3,4-c][1,4]oxazine], the response vs control in vivo at 100 mg/kg is 216%. For `CN1CCC(F)(c2cn([C@H]3CC[C@H](c4nnc(COc5ccc(Cl)c(C(F)(F)F)c5)n4C)CC3)nn2)CC1` [Example 5, 4-{1-[trans-4-(5-{[4-Chloro-3-(trifluoromethyl)phenoxy]methyl}-4-methyl-4H-1,2,4-triazol-3-yl)cyclohexyl]-1H-1,2,3-triazol-4-yl}-4-fluoro-1-methylpiperidine], the response vs control in vivo at 100 mg/kg was 206%. `CC(C)c1cccc(O[C@H](C)c2nnc([C@H]3CC[C@H](n4cc(C5(F)CCN(C)CC5)nn4)CC3)n2C)c1` [Example 4, 4-Fluoro-1-methyl-4-{1-[trans-4-(4-methyl-5-{(1R)-1-[3-(propan-2-yl)phenoxy]ethyl}-4H-1,2,4-triazol-3-yl)cyclohexyl]-1H-1,2,3-triazol-4-yl}piperidine]: the response vs control in vivo at 100 mg/kg was 131%. As to `CC(C)c1cccc(OCc2nnc([C@H]3CC[C@H](n4cc(-c5ccc([C@@H](C)N6CCC6)cc5)nn4)CC3)n2C)c1` [Example 6, 4-{4-[(1R)-1-(Azetidin-1-yl)ethyl]phenyl}-1-[trans-4-(4-methyl-5-{[3-(propan-2-yl)phenoxy]methyl}-4H-1,2,4-triazol-3-yl)cyclohexyl]-1H-1,2,3-triazole], the response vs control in vivo at 100 mg/kg turned out to be 243%. For `Cn1c(COc2cccc(C(F)(F)F)c2)nnc1[C@H]1CC[C@H](c2cnn([C@@H]3CC[C@@H](CN4CCC4)OC3)c2)CC1` [Example 22, 1,5-Anhydro-6-azetidin-1-yl-2,3,4,6-tetradeoxy-2-{4-[trans-4-(4-methyl-5-{[3-(trifluoromethyl)phenoxy]methyl}-4H-1,2,4-triazol-3-yl)cyclohexyl]-1H-pyrazol-1-yl}-D-erythro-hexitol], the response vs control in vivo at 100 mg/kg was 113%. On to `Cn1c(COc2cc(C(F)(F)F)ccn2)nnc1[C@H]1CC[C@H](c2cnn([C@H]3CC[C@H](N4CC(CO)(CO)C4)CC3)c2)CC1` [Example 29, {1-[trans-4-(4-{trans-4-[4-Methyl-5-({[4-(trifluoromethyl)pyridin-2-yl]oxy}methyl)-4H-1,2,4-triazol-3-yl]cyclohexyl}-1H-pyrazol-1-yl)cyclohexyl]azetidine-3,3-diyl}dimethanol], for which the response vs control in vivo at 100 mg/kg turned out to be 111%. In the case of `Cn1c(COc2cc(C(F)(F)F)ccn2)nnc1[C@H]1CC[C@H](c2cnn([C@H]3CC[C@H](N4CC5(COC5)C4)CC3)c2)CC1` [Example 24, 6-[trans-4-(4-{trans-4-[4-Methyl-5-({[4-(trifluoromethyl)pyridin-2-yl]oxy}methyl)-4H-1,2,4-triazol-3-yl]cyclohexyl}-1H-pyrazol-1-yl)cyclohexyl]-2-oxa-6-azaspiro[3.3]heptane], the response vs control in vivo at 100 mg/kg was 257%. With `Cn1c(COc2cccc(Cl)c2)nnc1[C@H]1CC[C@H](c2cc([C@@H]3CC[C@@H](N4CCC4)CO3)on2)CC1` [Example 35, 3-(trans-4-{5-[(2S,5R)-5-(Azetidin-1-yl)tetrahydro-2H-pyran-2-yl]-1,2-oxazol-3-yl}cyclohexyl)-5-[(3-chlorophenoxy)methyl]-4-methyl-4H-1,2,4-triazole], the response vs control in vivo at 100 mg/kg was 184%. Take `COC(=O)c1cccc(OCc2nnc([C@H]3CC[C@H](c4cnn([C@H]5CC[C@H](N6CCC6)CC5)c4)CC3)n2C)c1` [Example 30, Methyl 3-{[5-(trans-4-{1-[trans-4-(azetidin-1-yl)cyclohexyl]-1H-pyrazol-4-yl}cyclohexyl)-4-methyl-4H-1,2,4-triazol-3-yl]methoxy}benzoate]: the response vs control in vivo at 100 mg/kg stood at 141%.

For `CC(C)c1cccc(O[C@H](C)c2nnc([C@H]3CC[C@H](C4=NOC5(CCN(C)CC5)C4)CC3)n2C)c1` [Example 36, 8-Methyl-3-[trans-4-(4-methyl-5-{(1R)-1-[3-(propan-2-yl)phenoxy]ethyl}-4H-1,2,4-triazol-3-yl)cyclohexyl]-1-oxa-2,8-diazaspiro[4.5]dec-2-ene], the response vs control in vivo at 100 mg/kg was 230%. Turning to `Cn1c(COc2cccc(C(F)(F)F)c2)nnc1[C@H]1CC[C@H](n2cc(C34CCC(CN5CCC5)(CC3)CC4)nn2)CC1` [Example 10, 4-[4-(Azetidin-1-ylmethyl)bicyclo[2.2.2]oct-1-yl]-1-[trans-4-(4-methyl-5-{[3-(trifluoromethyl)phenoxy]methyl}-4H-1,2,4-triazol-3-yl)cyclohexyl]-1H-1,2,3-triazole], the response vs control in vivo at 100 mg/kg turned out to be 390%. The figure for `CC(C)c1cccc(O[C@@H](C)c2nnc(C34CCC(n5cc(-c6ccc([C@@H](C)N7CCC7)cc6)nn5)(CC3)CC4)n2C)c1` [Example 7, 4-{4-[(1R)-1-(Azetidin-1-yl)ethyl]phenyl}-1-[4-(4-methyl-5-{(1S)-1-[3-(propan-2-yl)phenoxy]ethyl}-4H-1,2,4-triazol-3-yl)bicyclo[2.2.2]oct-1-yl]-1H-1,2,3-triazole] is 113%.

For the molecule `Cn1c(COC2CCCC(C(F)(F)F)C2)nnc1[C@H]1CC[C@H](c2cnn([C@H]3CC[C@H](N4CC5(CCOC5)C4)CC3)c2)CC1` (stereo partly drawn) [Example 32, 2-[trans-4-(4-{trans-4-[4-Methyl-5-({[3-(trifluoromethyl)cyclohexyl]oxy}methyl)-4H-1,2,4-triazol-3-yl]cyclohexyl}-1H-pyrazol-1-yl)cyclohexyl]-6-oxa-2-azaspiro[3.4]octane], the response vs control in vivo at 100 mg/kg was determined as 202%. Turning to `CN1CCC(c2nnc(-c3ccc(-c4nnc(COc5cccc(C(F)(F)F)c5)n4C)cc3)o2)CC1` [Example 34, 1-Methyl-4-{5-[4-(4-methyl-5-{[3-(trifluoromethyl)phenoxy]methyl}-4H-1,2,4-triazol-3-yl)phenyl]-1,3,4-oxadiazol-2-yl}piperidine], the response vs control in vivo at 100 mg/kg stood at 202%. `CC(C)c1cccc(OCc2nnc([C@H]3CC[C@H](n4cc(C5(F)CCN(C)CC5)nn4)CC3)n2C)c1` [Example 3, 4-Fluoro-1-methyl-4-{1-[trans-4-(4-methyl-5-{[3-(propan-2-yl)phenoxy]methyl}-4H-1,2,4-triazol-3-yl)cyclohexyl]-1H-1,2,3-triazol-4-yl}piperidine]: the response vs control in vivo at 100 mg/kg is 179%.

Consider `CN1CCC(c2cn(-c3ccc(-c4nnc(COc5cccc(C(F)(F)F)c5)n4C)cc3)cn2)CC1` [Example 18, 1-Methyl-4-{1-[4-(4-methyl-5-{[3-(trifluoromethyl)phenoxy]methyl}-4H-1,2,4-triazol-3-yl)phenyl]-1H-imidazol-4-yl}piperidine], for which the response vs control in vivo at 100 mg/kg was determined as 157%. `CC(C)c1cccc(OCc2nnc(-c3ccc(-n4cc(C5CCN(C)CC5)nn4)cn3)n2C)c1` [Example 2, 5-[4-(1-Methylpiperidin-4-yl)-1H-1,2,3-triazol-1-yl]-2-(4-methyl-5-{[3-(propan-2-yl)phenoxy]methyl}-4H-1,2,4-triazol-3-yl)pyridine]: the response vs control in vivo at 100 mg/kg amounted to 220%. `Cn1c(COc2cccc(C(F)(F)F)c2)nnc1[C@H]1CC[C@H](c2cnn([C@H]3CC[C@H](N4CCC4)CC3)c2)CC1` [Example 21, 3-(trans-4-{1-[trans-4-(Azetidin-1-yl)cyclohexyl]-1H-pyrazol-4-yl}cyclohexyl)-4-methyl-5-{[3-(trifluoromethyl)phenoxy]methyl}-4H-1,2,4-triazole]: the response vs control in vivo at 100 mg/kg was 312%.
